Data as given in PMC7883042 (Peptide Science (Hoboken, N.j.), 2021).

Biological target: SARS‐CoV‐2 RBD/ACE2 PPI in A549 cells overexpressing ACE2 (Severe acute respiratory syndrome coronavirus 2, UniProt P0DTC2)

## Ac-IEEQAKTFLDKFNHER8EDLFYQS5-NH2 (sidechain bridge or staple) [Peptide 8]
  entry of His‐tagged SARS‐CoV RBD into cells (immunofluorescence): show entry
